Data reported in the METLIN SMRT retention time set (Domingo-Almenara et al. 2019).

Assay: gradient 5% acetonitrile 3 min, to 50% in 2 min, to 85% in 15 min, held 3 min, 100 µL/min
Conditions: column: Zorbax Extend-C18 2.1 x 50 mm; eluents: water / acetonitrile, 0.1% formic acid
How it was run: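 Pure standards were analyzed in mixtures of ~100 molecules using HPLC coupled to a quadrupole time-of-flight mass spectrometer, in both positive and negative ionization mode. Separation used a Zorbax Extend-C18 column (2.1 × 50 mm, 1.8 μm) at 100 μL/min, with water and acetonitrile each containing 0.1% formic acid. Dead and dwell volumes were 40 μL and 900 μL, and data were collected over 3 months. Retention time was read from computationally picked adduct peaks, each inspected manually.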

Structure (SMILES)	RP-LC retention time
Cc1ccc(-n2nc(OCC(=O)Nc3cc(F)ccc3F)ccc2=O)cc1C	866 s
O=C(C1CCN(c2ncccc2-c2nc(-c3cccc(F)c3)no2)CC1)N1CCC2(CC1)OCCO2	1010 s
Cc1ccc(Cl)cc1NC(=O)N1CCCC1c1nc(-c2ccccc2C)no1 (configuration not stated)	1120 s
CCCN1C(=O)CN(C2CCCCC2)C(=O)C1c1ccc(OC)c(OC)c1 (configuration not stated)	777 s
COc1cccc(NC(=O)C2CCCN(c3ncnc4c3nc3n4CCCCC3)C2)c1 (configuration not stated)	781 s
O=C(c1ccc(Cl)cc1)N1CCC(n2c(-c3ccco3)nc3cccnc32)C1 (configuration not stated)	805 s
CC1Cc2ccccc2N1S(=O)(=O)CCCOc1ccc2c(c1)OCO2 (configuration not stated)	1020 s
O=C(NCc1cccc(Cl)c1)C1CCN(c2cnc3nccnc3c2)CC1	697 s
CCCn1nc2n(c1=O)CCN(Cc1cn[nH]c1-c1ccc(C)c(C)c1)C2	644 s
CN1C(=O)COc2cc(-c3noc(C(=O)N4CCCCCC4)n3)ccc21	919 s
COc1cccc(-n2c(=O)c(C(=O)Nc3ccc(F)c(F)c3)c(O)c3cccnc32)c1	1250 s
CC(=O)N1c2ccc(S(=O)(=O)N3CCC(C(=O)Nc4cccc(Cl)c4C)CC3)cc2CC1C (configuration not stated)	895 s
Cn1c(C(O)c2ccccc2)nc2ccccc21 (configuration not stated)	545 s
COc1cc(NC(=O)CCc2c(-c3ccc(Cl)cc3)nc3ccccn23)cc(OC)c1OC	642 s
O=C(Nc1ccc2c(c1)CN(S(=O)(=O)c1cccnc1)CCO2)C1CC1	712 s
Nc1ccc(-c2ccc3ccccc3n2)cc1	619 s
O=C(Nc1nnc(SCCN2CCOCC2)s1)C1CCC1	544 s
O=C(Cc1ccc(Cl)cc1)NCC1CCN(C2CCCC2)CC1	566 s
COC(=O)c1cc(S(=O)(=O)N2CCCC2C(=O)NCc2ccccn2)cn1C (configuration not stated)	590 s
CCOC(=O)Cc1ccc(NC(=O)NCc2c(C)nn(C)c2C)cc1	680 s
CCCCOc1ccc(-c2ccc(=O)n(Cc3nc(-c4ccc(F)cc4)no3)n2)cc1	1290 s
CN(Cc1nc2ccccc2n1Cc1ccc(F)cc1)C(=O)c1ccco1	714 s

Structure (SMILES)	RP-LC retention time
CC(C)(C)NC(=O)NC1CCN(C(=O)C2CC2)C1 (configuration not stated)	610 s
CC(=O)Nc1ccc2c(c1)CN(C(=O)c1c(F)cccc1F)C(C(=O)N1CCCC1)C2 (configuration not stated)	873 s
COC(=O)c1c(NCc2ccc(F)cc2F)c2cccc(Cl)c2[nH]c1=O	822 s
Cc1cc(N2CCOCC2)nc(N2CCN(C(=O)c3ccccc3Br)CC2)n1	612 s
CS(=O)(=O)N(Cc1cccnc1)C1CN(C(=O)Nc2ccc3c(c2)OCCO3)C1	551 s
CCOC(=O)C1CCCN(C(=O)c2ccc(SCCN3CCOCC3)nc2)C1 (configuration not stated)	616 s
Cc1ccc(-c2noc(CN3N=NC4C(=O)N(c5cccc(F)c5)C(=O)C43)n2)cc1 (configuration not stated)	1020 s
CN(C)c1nc2ncn3c(=O)n(CC(=O)NC4CCc5ccccc54)nc3c2s1 (configuration not stated)	864 s
CCc1ccc(CNC(=O)C2CCN(Cc3cn(CC)c4ccc(Cl)cc34)CC2)cc1	825 s
O=C(c1cccc2c1CCN2C(=O)c1ccc(F)cc1)N1CCCCC1	854 s
Cc1c(NS(=O)(=O)CCOc2ccccc2)c(=O)n(-c2ccccc2)n1C	729 s
CCOc1ccc2nc(NC(=O)CCN3C(=O)C4C5C=CC(C5)C4C3=O)sc2c1 (configuration not stated)	834 s
O=C(NCCNC(=O)Nc1cccc(Cl)c1)Nc1cccc(Cl)c1	782 s
O=C(CCSc1nnc2ccc3ccccc3n12)Nc1ccc(F)cc1	878 s
CCC(C(=O)NCCN1CCN(C)CC1)n1nc(C)c2sc3ccccc3c2c1=O (configuration not stated)	629 s
O=C(O)CC1CCCN(c2cn[nH]c(=O)c2)C1 (configuration not stated)	570 s
O=C(Cn1nc2c3cc(-c4ccccc4)nn3ccn2c1=O)Nc1ccc(Br)cc1F	923 s
CN1C(=O)CCc2cc(NC(=O)c3ccnn3C)ccc21	645 s
O=C(Cn1cnc(-c2cccs2)cc1=O)NCc1nc2ccccc2[nH]1	570 s
CC1CCN(S(=O)(=O)c2ccc(-c3nnc(C(=O)NCCCOC(C)C)o3)cc2)CC1	1030 s
O=C(NCCS(=O)(=O)N1CCc2ccccc2C1)c1ccc([N+](=O)[O-])o1	752 s
CC1=C(c2ccccc2)S(=O)(=O)N=C1N1CCCN(C(=O)Nc2cccc(C#N)c2)CC1	814 s

Structure (SMILES)	RP-LC retention time
COC(=O)c1ncn2c1C(=O)N(Cc1cccc(Br)c1)C(C)(C(=O)NC1CCCC1)C2 (configuration not stated)	764 s
CC1(C(=O)NCc2ccc(F)cc2)Cn2cnc(C(=O)Nc3cc(F)ccc3F)c2C(=O)N1C1CC1 (configuration not stated)	847 s
CC(=O)Nc1ccc(S(=O)(=O)N2CCc3c(c(-c4nnc(-c5ccc(F)cc5)o4)nn3C)C2)cc1	783 s
CCCn1c(=O)sc2cc(S(=O)(=O)N3CCC(C(=O)Nc4cccc(F)c4)CC3)ccc21	983 s
O=C(NC1CCCCCC1)c1nc(Nc2ccc(F)cc2)c2ccccc2n1	943 s
COc1ccc(-c2cc(C(=O)Nc3ccccc3F)nn2C2CCS(=O)(=O)C2)cc1 (configuration not stated)	928 s
COc1ccc(CNC(=O)N(c2ccccc2)c2ccccc2)c(OC)c1	925 s
COc1ccc(C2C(C(=O)N3CCOCC3)=C(C)NC3=C2C(=O)CC(C)(C)C3)c(OC)c1 (configuration not stated)	973 s
CCOc1ccc(NC(=O)Cc2csc3nc(-c4ccc(C)c(C)c4)cn23)cc1	903 s
CCn1c(=O)n(CC)c2cc(N3CCCC3)c(NC(=O)NCc3cccc(OC)c3)cc21	646 s
COc1ccc(NC(=O)Cn2cnc3c(sc4nc(-c5ccccc5)ccc43)c2=O)cc1OC	899 s
COc1cccc(-c2nc(C3CCN(S(=O)(=O)c4cc(C)ccc4C)CC3)no2)c1	1210 s
CCC(C)NC(=O)N1CCCN(C2=NS(=O)(=O)C(c3ccc(C)c(C)c3)=C2C)CC1 (configuration not stated)	843 s
COc1ccc(NC(=O)N2C[C@@H](F)C[C@H]2C(=O)N2CCc3ccccc3C2)cc1OC	732 s
Cc1nnc2cc(N3CCN(S(=O)(=O)c4ccc(CC(C)C)cc4)CC3)cnn12	695 s
Cc1cnn(Cc2nc(-c3ccc(NC(=O)C4CCCC4)cc3)oc2C)c1	905 s
c1ccc(-c2nc3cc(-c4noc(-c5cccnc5)n4)ccc3o2)cc1	1290 s
CC1(C)CC(=O)C2=C(C1)N(CC1CCCO1)C(=O)C2(NC(=O)c1ccccc1F)C(F)(F)F (configuration not stated)	908 s
Cc1c(C(=O)NCC(c2cccs2)N2CCCC2)oc2ccc(Cl)cc12 (configuration not stated)	730 s
O=C(Cn1nc2c3sc(N4CCCCC4)nc3ncn2c1=O)Nc1cc(F)cc(F)c1	828 s
CCOC(=O)c1ccc(NC(=O)c2ccc(-n3nncc3C)cc2)cc1	757 s
Fc1cc(F)cc(-c2nnc(Cc3nc(-c4ccccc4F)no3)o2)c1	1060 s

Structure (SMILES)	RP-LC retention time
CCCCCC(=O)Nc1cc(-c2nc3ccccc3[nH]2)ccc1C	712 s
O=C(NCCc1ccncc1)c1ccc2c(c1)ncn2-c1ccccc1	550 s
CCSc1nnc(NC(=O)CSc2nnc(-c3ccco3)o2)s1	726 s
COc1ccc(Cl)cc1NS(=O)(=O)c1cn(C(C)C)c2ncccc12	972 s
O=C(N[C@H](Cc1ccccc1)C(=O)NCc1cscn1)c1ccc(F)cc1	1090 s
Cc1ccc(NC(=O)N2CCc3c(c(-c4nc(C)no4)nn3C)C2)c(C)c1	762 s
CC(C)NC(=O)CN1C(=O)COc2ccc(C(=O)N3CCCCCC3)cc21	680 s
CCOC(=O)c1cc(C)nc2c1c(=O)n(Cc1cccc(C(F)(F)F)c1)c(=O)n2C	1150 s
O=C(Cn1cccn1)N1CC(c2nc(-c3cccs3)no2)C1	644 s
CC(C(=O)NCCN1CCCCC1)n1c(=O)c(C(F)(F)F)nc2ccccc21 (configuration not stated)	601 s
COc1ncc(C(=O)N2CCN(c3ccc(F)cc3)CC2)cn1	735 s
COc1ccc(OC)c(CNC(=O)C2=C3CCCN3c3ccc(F)cc3S2(=O)=O)c1	872 s
Cc1ccc(NC(=O)NC2CCN(C(=O)N3C[C@H]4C[C@H](C3)[C@H]3CCCC(=O)N3C4)CC2)cc1C	702 s
COC(=O)c1ccc(NC(=O)Cc2csc(Nc3ccc(F)cc3)n2)cc1	838 s
COC(=O)c1c(C)[nH]c(C(=O)N2CCCC(C(=O)NCc3ccccc3C)C2)c1C (configuration not stated)	776 s
CCOC(=O)c1c(S(=O)(=O)N2CCC(C(=O)Nc3ccc(CC)cc3)CC2)c(C)n(C)c1C	943 s
CCOC(=O)c1csc(NC(=O)c2ccn(CC)n2)n1	702 s
CCCNC(=O)C1CCN(c2ccc(SCC(=O)Nc3ccc(F)cc3Cl)nn2)CC1	682 s
CCn1c(=O)sc2cc(S(=O)(=O)N3CCC(C(=O)Nc4ccc(C)cn4)CC3)ccc21	735 s
CCC(CC)NC(=O)C1CCN(c2cn[nH]c(=O)c2)C1 (configuration not stated)	612 s
CCn1ccc2sc(C)c(C(=O)NCc3cccc(Br)c3)c2c1=O	918 s
